Measured values: paper PMC9301601 (Frontiers in Pharmacology, 2022)

What was measured:
hERG protein = system: hERG protein; set-up: method as in Borsini et al., 2012; details: ref Borsini et al., 2012; cited from earlier work
hERG potassium channel = system: hERG potassium channel; set-up: method as in Szendrey et al., 2021; details: ref Szendrey et al., 2021; cited from earlier work
hERG = system: hERG; set-up: method as in Szendrey et al., 2021; details: when acting alone; ref Szendrey et al., 2021; cited from earlier work
KCNQ1 = test: RT-qPCR of KCNQ1 in hiPSC-CMs; assay type: cell-based, human
hiPSC-CMs = test: Action potential recording in hiPSC-CMs, whole-cell patch-clamp (current-clamp); assay type: cell-based, human; details: for decrease of APD vs CTL / APD (APD90): 24-h incubation; for APD (APD90): CTL 364.4 ms, p < 0.0001, n = 14; for early after-depolarizations (EADs) during repolarization: transient effect, recorded within 1 hour
SARS-CoV-2 = system: SARS-CoV-2; set-up: method as in Lou et al., 2021; details: read-out: 50% effective inhibition concentration (EC50) against SARS-CoV-2; ref Lou et al., 2021; cited from earlier work
Hsp70 = test: Western blot of chaperone Hsp70 after 24 h incubation; assay type: cell-based, human; details: LPV 1-20 μM, especially at 10 μM
Hsp90 = test: Western blot of chaperone Hsp90 after 24 h incubation; assay type: cell-based, human; details: LPV 1-20 μM
[1] = system: sodium or calcium channels (SLC8A1, CACNA1C, SCN5A); test: RT-qPCR of cardiac ion channel genes in hiPSC-CMs: sodium or calcium channels; assay type: cell-based, human; details: GAPDH housekeeping
COVID-19 = system: COVID-19; set-up: method as in Lenze et al., 2020; details: hospitalized patients with COVID-19, double-blind RCT; ref Lenze et al., 2020; cited from earlier work
Ito = system: Ito; set-up: method as in Chen et al., 2020; Guo et al., 2021; details: as a sigma-1 receptor agonist; ref Chen et al., 2020; Guo et al., 2021; cited from earlier work
ICaL = system: ICaL; set-up: method as in Chen et al., 2020; Guo et al., 2021; details: as a sigma-1 receptor agonist; ref Chen et al., 2020; Guo et al., 2021; cited from earlier work
[2] = LPV-treated hiPSC-CMs, Figure 6H
[3] = FLV-treated hiPSC-CMs, Figure 6H

CCN(CC)CCCC(C)Nc1ccnc2cc(Cl)ccc12 (stereo not shown) [chloroquine]
trafficking of the hERG protein (hERG protein): prompted the trafficking
effect on the hERG current (IhERG) (hERG potassium channel): acutely and severely inhibited

CCC(CC)COC(=O)[C@H](C)N[P@](=O)(OC[C@H]1O[C@@](C#N)(c2ccc3c(N)ncnn23)[C@H](O)[C@@H]1O)Oc1ccccc1 [remdesivir]
effect on the hERG current (IhERG) (hERG potassium channel): increased
hERG maturation (hERG): promoted hERG maturation

Cc1cccc(C)c1OCC(=O)N[C@@H](Cc1ccccc1)[C@@H](O)C[C@H](Cc1ccccc1)NC(=O)[C@H](C(C)C)N1CCCNC1=O [LPV, lopinavir]
level of KCNQ1 nucleic acid (KCNQ1; chronic LPV administration): increased
decrease of APD vs CTL (hiPSC-CMs; 10 μM LPV): 191.8 ms
APD (APD90) (hiPSC-CMs; 10 μM LPV): 172.6 ms
early after-depolarizations (EADs) during repolarization (hiPSC-CMs; 10 μM LPV): induce the occurrence of EADs
APD10 (hiPSC-CMs; [2]): 48.9 ± 10.3 ms
APD30 (hiPSC-CMs; [2]): 103.6 ± 11.2 ms
Amp (amplitude) (hiPSC-CMs; [2]): 103.8±6.1 mV
MDP (maximum diastolic potential) (hiPSC-CMs; [2]): -59.1±3.6 mV
EC50 (SARS-CoV-2): 1740 nM
expression of Hsp70 (Hsp70): significantly increased
expression levels of Hsp90 (Hsp90): significant reduction
mRNA expression of sodium or calcium channels ([1]; 10 μM LPV): did not significantly alter

COCCCC/C(=N\OCCN)c1ccc(C(F)(F)F)cc1 [FLV, fluvoxamine]
level of KCNQ1 nucleic acid (KCNQ1; chronic FLV administration): increased
decrease of APD vs CTL (hiPSC-CMs; 3 μM FLV): 183.6 ms
APD (APD90) (hiPSC-CMs; 3 μM FLV): 180.8 ms
early after-depolarizations (EADs) during repolarization (hiPSC-CMs; 3 μM FLV): induce the occurrence of EADs
APD10 (hiPSC-CMs; [3]): 52.3 ± 8.8 ms
Amp (amplitude) (hiPSC-CMs; [3]): 99.2±9.7 mV
MDP (maximum diastolic potential) (hiPSC-CMs; [3]): -51.8±8.3 mV
clinical deterioration rate (COVID-19): lower clinical deterioration rate
effect on Ito (Ito): enhances
effect on ICaL (ICaL): decreases
mRNA expression of sodium or calcium channels ([1]; 3 μM FLV): did not significantly alter

CCN(CCO)CCCC(C)Nc1ccnc2cc(Cl)ccc12 (stereo not shown) [hydroxychloroquine]
effect on the hERG current (IhERG) (hERG potassium channel): acutely and severely inhibited
